≈ marks a conversion by molar mass, not a printed value.
system: Aspergillus fumigatus; assay: Antifungal activity against Aspergillus fumigatus at 100 ug/ml by disc diffusion method; format: functional; conditions: read-out: IZ

Compared with `Cc1ccc2nc(Cl)c(Cn3nnc(Cc4ccccc4)n3)cc2c1`, `Clc1nc2ccc(Br)cc2cc1Cn1nnc(CSc2ccccc2)n1` is higher in zone of inhibition at 100 µg/mL: 12 mm for the first, 15 mm for the second.

Compared with `OC(Cn1cncn1)(Cn1cncn1)c1ccc(F)cc1F` [FLUCONAZOLE], `COc1ccc2nc(Cl)c(Cn3nnc(CSc4ccccc4)n3)cc2c1` is lower in zone of inhibition at 100 µg/mL: 26 mm for the first, 20 mm for the second.

system: Candida albicans; assay: Antifungal activity against Candida albicans after 24 hrs by serial dilution method; format: functional; conditions: not given

`Cc1ccc2nc(Cl)c(Cn3nnc(Cc4ccccc4)n3)cc2c1` and `Clc1nc2ccc(Br)cc2cc1Cn1nnc(CSc2ccccc2)n1` are the same in MIC: 25 µg/mL (≈ 71.5 µM) for the first, 25 µg/mL (≈ 56 µM) for the second.

`OC(Cn1cncn1)(Cn1cncn1)c1ccc(F)cc1F` [FLUCONAZOLE] and `COc1ccc2nc(Cl)c(Cn3nnc(CSc4ccccc4)n3)cc2c1` are within 1.5-fold of each other in MIC: 30 µg/mL (≈ 98 µM) for the first, 25 µg/mL (≈ 62.8 µM) for the second.

system: Aspergillus fumigatus; assay: Antifungal activity against Aspergillus fumigatus after 24 hrs by serial dilution method; format: functional; conditions: not given

First: Cc1ccc2nc(Cl)c(Cn3nnc(Cc4ccccc4)n3)cc2c1
Second: Clc1nc2ccc(Br)cc2cc1Cn1nnc(CSc2ccccc2)n1
The MIC of the first is 5-fold higher: 25 µg/mL (≈ 71.5 µM) for the first, 5 µg/mL (≈ 11.2 µM) for the second.

Going from `OC(Cn1cncn1)(Cn1cncn1)c1ccc(F)cc1F` [FLUCONAZOLE] to `COc1ccc2nc(Cl)c(Cn3nnc(CSc4ccccc4)n3)cc2c1`, the MIC falls from 30 µg/mL (≈ 98 µM) to 10 µg/mL (≈ 25.1 µM) (3-fold).

system: Candida albicans; assay: Antifungal activity against Candida albicans at 100 ug/ml by disc diffusion method; format: functional; conditions: read-out: IZ

Going from `Cc1ccc2nc(Cl)c(Cn3nnc(Cc4ccccc4)n3)cc2c1` to `Clc1nc2ccc(Br)cc2cc1Cn1nnc(CSc2ccccc2)n1`, the zone of inhibition at 100 µg/mL rises from 12 mm to 18 mm.

First: OC(Cn1cncn1)(Cn1cncn1)c1ccc(F)cc1F [FLUCONAZOLE]
Second: COc1ccc2nc(Cl)c(Cn3nnc(CSc4ccccc4)n3)cc2c1
The zone of inhibition at 100 µg/mL of the first is higher: 24 mm for the first, 16 mm for the second.
